Columns and labels:
[1] = target: Mu-type opioid receptor (Rattus norvegicus) (UniProt P33535)
[2] = target: Substance-P receptor (Cavia porcellus) (UniProt P30547); conditions: Hartley, Ileum
Substance-P receptor (Cavia porcellus), sequence (P30547 whole entry): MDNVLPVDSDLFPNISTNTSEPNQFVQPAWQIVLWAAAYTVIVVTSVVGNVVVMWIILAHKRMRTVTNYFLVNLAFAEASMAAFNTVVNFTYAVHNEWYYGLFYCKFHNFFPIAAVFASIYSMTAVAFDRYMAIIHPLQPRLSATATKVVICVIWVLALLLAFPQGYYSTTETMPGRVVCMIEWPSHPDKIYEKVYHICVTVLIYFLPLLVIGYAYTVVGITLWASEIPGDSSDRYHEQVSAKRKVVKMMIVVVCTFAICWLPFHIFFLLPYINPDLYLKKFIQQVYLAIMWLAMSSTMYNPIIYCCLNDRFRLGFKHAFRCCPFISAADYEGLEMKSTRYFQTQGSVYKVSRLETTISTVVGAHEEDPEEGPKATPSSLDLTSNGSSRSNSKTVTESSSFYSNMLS

Mu-type opioid receptor (Rattus norvegicus), sequence (P33535 whole entry): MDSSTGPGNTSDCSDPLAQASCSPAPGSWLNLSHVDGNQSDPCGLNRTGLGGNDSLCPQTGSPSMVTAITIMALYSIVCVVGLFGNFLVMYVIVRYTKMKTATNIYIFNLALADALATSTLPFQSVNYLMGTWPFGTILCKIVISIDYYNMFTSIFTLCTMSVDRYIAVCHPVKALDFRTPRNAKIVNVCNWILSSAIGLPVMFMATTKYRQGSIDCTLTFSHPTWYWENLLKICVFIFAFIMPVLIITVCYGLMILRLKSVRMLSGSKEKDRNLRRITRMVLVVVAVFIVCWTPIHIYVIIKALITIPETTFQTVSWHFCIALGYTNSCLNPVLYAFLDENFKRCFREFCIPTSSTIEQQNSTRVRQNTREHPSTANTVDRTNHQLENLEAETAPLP

CSCC[C@H](NC(=O)[C@H](Cc1ccccc1)NC(=O)CNC(=O)[C@@H](C)NC(=O)[C@@H](N)Cc1ccc(O)cc1)C(=O)N1CCC[C@H]1C(=O)N[C@@H](CC(C)C)C(=O)N[C@@H](Cc1c[nH]c2ccccc12)C(=O)NCc1cc(C(F)(F)F)cc(C(F)(F)F)c1
pEC50 [1]: 8.2 nM
Ke [2]: 10 nM

CSCC[C@H](NC(=O)[C@H](Cc1ccccc1)NC(=O)CNC(=O)[C@@H](C)NC(=O)[C@@H](N)Cc1ccc(O)cc1)C(=O)N1CCC[C@H]1C(=O)N[C@@H](CC(C)C)C(=O)N[C@@H](Cc1c[nH]c2ccccc12)C(=O)NCc1ccccc1
pEC50 [1]: 7.7 nM
Ke [2]: 9.9 nM

CSCC[C@H](NC(=O)[C@H](Cc1ccccc1)NC(=O)CNC(=O)[C@@H](C)NC(=O)[C@@H](N)Cc1ccc(O)cc1)C(=O)N1CCC[C@H]1C(=O)N[C@@H](CC(C)C)C(=O)N[C@@H](Cc1c[nH]c2ccccc12)C(=O)OCc1cc(C(F)(F)F)cc(C(F)(F)F)c1
pEC50 [1]: 7.5 nM

From ChEMBL document CHEMBL1140170, “The importance of micelle-bound states for the bioactivities of bifunctional peptide derivatives for delta/mu opioid receptor agonists and neurokinin 1 receptor antagonists” (J Med Chem, 2008)
